Laboratory results published in ChEMBL document CHEMBL3769368, “Semi-synthesis and anti-tumor evaluation of novel 25-hydroxyprotopanaxadiol derivatives as apoptosis inducing agents” (Medchemcomm, 2015).
Calls of active or inactive are those of the source. The rule behind the calls is not given here.

Experiments:
[1] = Antiproliferative activity against human PC3 cells after 48 hrs by MTT assay; type: functional, cell-based; settings: PC-3, 48 h
[2] = Antiproliferative activity against human alpha-2 cells after 48 hrs by MTT assay; type: functional, cell-based
DU-145 [3] = assay: Induction of morphological changes in human DU145 cells assessed as decrease in cell size at 20 uM after 12 hrs by inverted microscopy; type: functional, cell-based
DU-145 [4] = assay: Induction of morphological changes in human DU145 cells assessed as formation of bubble-shaped regions at 20 uM after 12 hrs by inverted microscopy; type: functional, cell-based
DU-145 [5] = assay: Induction of cell cycle arrest in human DU145 cells assessed as accumulation at Sub G1 phase at 20 uM after 18 hrs by propidium iodide staining-based flow cytometry (reference value: 1.57 to 1.59%); type: functional
[6] = Antiproliferative activity against human DU145 cells after 48 hrs by MTT assay; type: functional, cell-based; settings: DU-145, 48 h
DU-145 [7] = assay: Induction of apoptosis in human DU145 cells assessed as chromatin nucleus condensation at 20 uM after 12 hrs by DAPI staining-based fluorescence microscopy; type: functional, cell-based
DU-145 [8] = assay: Induction of cell cycle arrest in human DU145 cells assessed as accumulation at Sub G1 phase at 20 uM after 6 hrs by propidium iodide staining-based flow cytometry (reference value: 1.57 to 1.59%); type: functional
DU-145 [9] = assay: Induction of apoptosis in human DU145 cells assessed as formation of apoptotic bodies at 20 uM after 12 hrs by DAPI staining-based fluorescence microscopy; type: functional, cell-based
MDA-MB-231 = assay: Antiproliferative activity against human MDA-MB-231 cells after 48 hrs by MTT assay; type: functional, cell-based; settings: MDA-MB-231, 48 h
[10] = Antiproliferative activity against human BGC823 cells after 48 hrs by MTT assay; type: functional, cell-based; settings: BGC-823, 48 h
[11] = Cytotoxicity against human IOSE-144 cells after 48 hrs by MTT assay; type: cell-based; settings: IOSE-144, 48 h
DU-145 [12] = assay: Induction of cell cycle arrest in human DU145 cells assessed as accumulation at Sub G1 phase at 20 uM after 12 hrs by propidium iodide staining-based flow cytometry (reference value: 1.57 to 1.59%); type: functional
DU-145 [13] = assay: Induction of morphological changes in human DU145 cells assessed as spherical cells at 20 uM after 12 hrs by inverted microscopy; type: functional, cell-based
DU-145 [14] = assay: Induction of cell cycle arrest in human DU145 cells assessed as accumulation at Sub G1 phase at 20 uM after 3 hrs by propidium iodide staining-based flow cytometry (reference value: 1.57 to 1.59%); type: functional

SMILES	IC50 [1]	IC50 [2]	Activity (DU-145 [3])	Activity (DU-145 [4])	Activity (DU-145 [5])	IC50 [6]	Activity (DU-145 [7])	Activity (DU-145 [8])	Activity (DU-145 [9])	IC50 (MDA-MB-231)	IC50 [10]	IC50 [11]	Activity (DU-145 [12])	Activity (DU-145 [13])	Activity (DU-145 [14])
CC(C)(O)CCC[C@@](C)(O)[C@H]1CC[C@]2(C)[C@@H]1[C@H](O)C[C@@H]1[C@@]3(C)CC[C@H](OC(=O)[C@@H](N)CCC(=O)O)C(C)(C)[C@@H]3CC[C@]12C	9.9 µM	6.2 µM	Active	Active	30.53%	6.5 µM	Active	9.81%	Active	4.2 µM	6.9 µM	> 100 µM	13.39%	Active	
CC(C)(O)CCC[C@@](C)(O)[C@H]1CC[C@]2(C)[C@@H]1[C@H](O)C[C@@H]1[C@@]3(C)CC[C@H](OC(=O)[C@@H](N)CCCNC(=N)N)C(C)(C)[C@@H]3CC[C@]12C	6.1 µM	7.1 µM	Active	Active		5.5 µM	Active	16.29%	Active	4.2 µM	4.6 µM	> 100 µM	34.07%	Active	7.37%
C[C@@H](O)[C@H](N)C(=O)O[C@H]1CC[C@]2(C)[C@H]3C[C@@H](O)[C@@H]4[C@@H]([C@](C)(O)CCCC(C)(C)O)CC[C@@]4(C)[C@]3(C)CC[C@H]2C1(C)C	8.9 µM	12 µM				8.7 µM				5.4 µM	11 µM	> 100 µM			
